# Test results: patent US10729693B2, “Compositions and methods for the treatment of endometriosis” (PONCE MEDICAL SCHOOL FOUNDATION, INC., priority 2018, dated 2020)
# Assays:
# endometriosis vesicles = assay: Autotransplantation rat model of endometriosis: vesicle development and morphology; assay type: in vivo; conditions: at 60 days
# From the text: Experiment 2 consisted of 51 female rats that underwent endometriosis induction (n=40) or sham surgery (n=11). From the 40 rats that underwent endometriosis induction, 20 rats received the CRHR1 antagonist antalarmin intraperitoneally (i.p.) and 20 rats received vehicle control i.p. (10% Tween 80) from days 1-7 after surgery and endometriosis was allowed to progress until day 60 after surgery. The remaining 11 rats that underwent sham surgery were left untreated until day 60 after surgery. The sham group was used as a non-endometriosis baseline comparison. Only rats with regular estrous cycles were used in the experiments as assessed by vaginal smear lavage during the 7 days prior to surgery and on the day of sacrifice. […] Therefore, the final group numbers for endometriosis quantification and behavior were: endometriosis-antalarmin=20, endometriosis-vehicle=20, sham=10. Cyclicity was not assessed during the drug administration and was only collected before treatment and the day of sacrifice. This was decided to avoid any additional stressors not related to the drug administration per se that may affect results. The estrous cycle distribution for experiments 1 and 2 can be accessed in FIG. 14.
# First, endometriosis in female rats was induced by suturing uterine horn tissue next to the intestinal mesentery and allowed to progress for 7 days. After 7 days, it was determined that there was a significant increase in CRHR1 within endometriotic vesicles as compared to a normal uterus. Endometriosis was induced in a second group of rats, and further the second group of rats received consecutive doses of antalarmin of 20 milligrams per kilogram intraperitoneal (20 mg/kg, i.p.) during the first 7 days after surgery. A separate group of sham surgery rats served as controls.
# Briefly, rats were anesthetized with isoflurane and four pieces of the right uterine horn were auto transplanted to 4 different blood vessels in the intestinal mesentery. The control group was sham operated animals for which the right uterine horn was massaged for 2 minutes and sutures were placed in the intestinal mesenteric area with no uterine implants. For group 1, sham or endometriosis operated rats were allowed to progress for 7 days after surgery before sacrificed. For group 2, endometriosis was allowed to progress for 60 days before sacrificing.
# It was verified that the animals were deeply anesthetized. Rats were weighed, and a cytological smear taken to verify stage of the estrous cycle. The peritoneal and thoracic cavities were opened, and a blood sample was collected directly from the heart. Following this, peritoneal fluid was collected using a sterile plastic pipette. Examination was directed to the presence of endometriosis vesicles. The implants that developed into vesicles were excised from the mesentery, weighed and measured using a digital caliper. Classification of vesicles was carried out and assigned the following grades: grade 1=disappeared; grade 2=0.01-1.99 mm; grade 3=2-4.49 mm; grade 4=4.5-5.99 mm; grade 5=6.0 mm or larger. In sham animals, empty suture sites were counted and collected. In addition to the endometriosis vesicles, the adrenal glands were collected, all surrounding fatty tissue was removed, and the cleared adrenal glands were weighed. Additionally, tissues from colon and the left uterine horn were collected. All tissues were flash frozen and stored at −80° until further processing.
# anxiety behaviors = assay: Anxiety behaviors: open field and elevated zero maze; assay type: in vivo, rat; conditions: day 60; compared to sham group
# Procedure: One day before behavioral assessment and sacrifice a subset of rats (6 vehicle and 6 antalarmin) were subjected to an acute episode of swim stress of 10 min and compared to no stress controls to assess how rats respond to acute activation of the HPA axis. For this, animals were placed in a Plexiglas tank for 10 min in water at 25° C. Rats were towel dried and kept in warm cage after swim until fur dried. The next day, two behavioral tasks were used to assess anxiety behaviors. The open field test is used to quantify exploratory and locomotor activity of a rodent in an open arena. The apparatus used was a square wood arena (91×91×38 cm) with overhead light illumination and video monitoring to record animal activity using Any-Maze software (Stoelting, Wood Dale, Ill.). The following behaviors were quantified during 20 minutes: 1) total distance moved, 2) time spent moving, 3) time spent in the center of the arena, 4) time spent near the walls of the arena (defined by the 15 cm of floor arena closest to the walls) and 5) total fecal pellets. The more time the animal spends in the center of the arena compared to the space adjacent to the wall is considered as having less anxiety. At the end of the testing period, animals were returned to the home cage and after a 5-min break were tested in the elevated zero-maze.
# The elevated zero-maze is very similar to the more traditional elevated plus maze test, with the advantage of not having a neutral (undefined) zone in the middle. The apparatus consisted of a circle with an arm width of 10 cm and elevated 40 cm from floor. […] Rats were allowed to run the maze for 5 consecutive minutes and recorded using the Any-Maze software (Stoelting, Wood Dale, Ill.). The following parameters were analyzed by the Any-Maze program: 1) total distance travelled in the maze, 2) time spent in the open/closed arms and 2) number of entries made by the rodent onto the open/closed arms. When 60% of the animal body entered the arm, the program counted is as an entry. In addition, total fecal pellets in the maze were quantified. […]
# [1] = system: CRH peptide, CRHR1 and glucocorticoid receptor (GR) in hypothalamus and hippocampus; assay: Brain immunohistochemistry (percent of area immunolabeled); assay type: in vivo, rat
# Procedure: Protocols previously published (Torres-Reveron et al., 2016, 2009, 2008) were followed. Rats were perfused with 4% paraformaldehyde by aortic arch perfusion and brains were removed and stored in cryoprotectant solution (30% sucrose, 30% ethylene glycol) until further processing. Coronal tissue sections (40 μm thick) through the hypothalamus (sections 0.92 to 1.88 caudal to Bregma) and dorsal hippocampus (sections 3.8 to 4.3 caudal to Bregma), which include the amygdala were selected and incubated in antiserum raised against CRHR1 (goat polyclonal, Abcam, cat. ab59023), CRH peptide antibody (guinea pig polyclonal, Peninsula labs., cat. T-5007) or glucocorticoid receptor antibody (GR, rabbit monoclonal, Cell Signaling cat. #3660) for 48 hrs. at 4° C. Optimal working concentrations were determined for each antibody. The primary antibody was labeled with CY3 secondary antibody (1:400 Jackson ImmunoResearch, West Grove, Pa.). Images were taken at the same time and illumination (excitation) and background corrected to control for batch effects. All regions of interest were analyzed using Image J software (open access from NIH) to calculate the percent of positive immunolabeling within the region of interest. Tissue from control and experimental animals was processed together. For each animal, the two best morphologically preserved sections of each region of interest were included in the analysis.
# [2] = 20 mg/kg i.p. days 1-7 after surgery
# [3] = compared to sham, both endometriosis groups regardless of treatment
smiles,measurement,setting,value
CCCCN(CC)c1nc(C)nc2c1c(C)c(C)n2-c1c(C)cc(C)cc1C [antalarmin],"average vesicle area per rat, difference to vehicle",endometriosis vesicles; [2],55%
same,"average vesicle volume per rat, difference to vehicle",endometriosis vesicles; [2],68%
same,"total weight of endometriosis vesicles (sum per rat), less than vehicle control (size decrease)",endometriosis vesicles; [2],67%
same,decrease in the number of developed endometriosis vesicles,"endometriosis vesicles; 20 mg/kg i.p. days 1-7 after surgery, vs vehicle",30%
same,"vesicle classification by grade (1-5, length scale)",endometriosis vesicles; vs vehicle treated control,"a larger percentage of endometriosis vesicles that disappeared, as well as a reduced percentage of vesicles of grade 3 and 5"
same,open field: total distance traveled,anxiety behaviors,significantly lower
same,zero maze: locomotor activity,anxiety behaviors,higher locomotor activity
same,zero maze: time in the open arms,anxiety behaviors,strong trend for both groups of rats with endometriosis to spend less time in the open arms
same,CRHR1 immunolabeling in dentate gyrus (DG),[1]; [3],Large increases in CRHR1 labeling
same,GR immunolabeling in dentate gyrus (DG),[1]; [3],Large increases in GR labeling
same,CRH peptide immunolabeling in PVN and hippocampus,[1]; day 60,No changes in CRH peptide
same,CRHR1 immunolabeling in CA3,[1]; day 60,No changes in CRHR1
same,GR immunolabeling in CA3,[1]; day 60,no changes in GR
